The text below walks through data of article PMC10375533, “Preference of Bacterial Rhamnosyltransferases for 6-Deoxysugars Reveals a Strategy To Deplete O-Antigens” (Journal of the American Chemical Society, 2023).

Entries after “also recorded” stand apart in the source; their conditions may differ. Like-named read-outs stand apart in the source and are kept apart here.

The target in assay [1] is T. thermophilus RfbF (Thermus thermophilus, UniProt Q72KB9). Briefly: Isothermal titration calorimetry (ITC) binding measurements with RfbF. As to conditions: for ΔG / ΔH / ΔS / KD / binding to RfbF by ITC (in words) / Kd / n-value (stoichiometry): ITC; for fold increase in KD relative to dTDP-β-L-Rha: ITC with RfbF, compared to the native donor; for n-value (stoichiometry): ligands with sigmoidal binding curves, SD in parentheses, n = 3.

The target of assay [2] is T1, E. coli WbbL (Escherichia coli, UniProt P36667). Briefly: In vitro inhibition assay of E. coli WbbL with monosaccharides and compound 2. Format: biochemical. To be noted: 5 mM inhibitor, 250 µM dTDP-β-L-Rha, 1 mM GlcNAc-PP-undecaprenol, 8 min. On the procedure: Primers were purchased from Invitrogen and sequencing was completed by GENEWIZ (Azenta) or EtonBio. Chemicals were purchased from Sigma Aldrich, CarboSynth, Fisher Scientific, and Cayman without further purification. 1H, 13C, and 31P NMR spectra were recorded on a Bruker Avance III 400, 500, or 600 MHz instrument. All spectra were calibrated using residual non-deuterated solvent as an internal reference and processed using MestReNova (authorized to NYU). Gel filtration purification and analyses was performing using at AKTA pure 15 L instrument (UNICORN™ software, GE Healthcare). HRMS analyses were acquired on an Agilent 6224 Accurate-Mass time-of-flight LC/MS (LC-TOF) spectrometer equipped with an electrospray ionization (ESI) source with an autosampler. GraphPad Prism software 9.0 was used for all plotting and data analysis unless otherwise noted. Statistical significance of grouped data was assessed using paired t-tests in Prism. For the IC50 calculation, data were fit in Prism using the equation log(inhibitor) versus response (three parameters): y = bottom + (top-bottom)/(1+10^(X-log IC50)) based on the assumption the Hill slope would be 1, as predicted by ITC results with n ~ 1 for donor ligands. Data was normalized to controls without enzyme and with no inhibitor added. Confidence intervals were calculated based on the standard error. 1M TEAB buffer was prepared by suspending triethylamine (1 mol, 139 mL) in water (700 mL) and passing carbon dioxide (from evaporated dry ice) through the mixture until the pH=7.5. The buffer was diluted to 1L and stored as a stock solution at 4 °C. Prior to use it was diluted to 50 mM in deionized H2O […]
Methods for protein and cellular biochemistry/bioinformatics used in this study.
Bioinformatic approach to identify Thermus thermophilus RfbF as a putative glycolipid RT.
The Carbohydrate-Active Enzymes Database (CAZy.org) was used to identify thermophilic organisms with annotated glycosyltransferases (GTs).11-12 Genes annotated as wbbL have been experimentally shown to encode dTDP-rhamnosyltransferases that transfer L-Rha onto N-acetyl--a-D-glucosamine-1-diphospholipid acceptors.13-14 In Shigella flexneri, the protein encoded by rfbF was noted to carry out the same biochemical activity as WbbL based on genetic and LPS analyses.15-16 Both E. coli WbbL and S. flexneri RfbF belong to the GT2 family. A CAZy search for rfbF and wbbL was performed in the genomes of Gram-negative extreme thermophiles, which […]
(GenBank: AAS80876.1), which had not yet been biochemically characterized. Protein ANalysis […]
(§1) thermodynamic values were evaluated using ITCRun software (TA Instruments) and fit with a […]
Specific activities were determined by modification of the protocol outlined by Li et al. […]

For assay [3], the target named is T1, E. coli WbbL. Briefly: Specific activity assay of rhamnosyltransferase (HPLC, rSAP-coupled), E. coli WbbL membrane fraction. As to conditions: native donor dTDP-β-L-Rha, t = 1 h. The assay is classed as biochemical. The procedure: as §1
Specific activity assays for bacterial rhamnosyltransferases from different species.
Specific activities were determined by modification of the protocol outlined by Li et al.
Specifically, 0.155 mg/mL RfbF, 0.081 mg/mL E. coli WbbL, or 0.111 mg/mL Mtb WbbL were used to initiate the following reaction mixtures: 25 mM Tris-HCl pH 7.5, 1 mM GlcNAc-PP-lipid, 1 mM donor-substrate, 5 mM MgCl2, 1 U rSAP (1000 U/mL stock solution), 1% (v/v) Triton X-100, 5% (v/v) DMSO (for reactions containing C55, C20, C15 lipid) or MeOH (for reactions containing C35 lipid) in a total volume of 20 µL. […]
Consumption of NDP-sugar donors was monitored on reverse phase HPLC equipped with a Phenomenex 5 µm, 21.2 x 150 mm, NX-C18 Å Gemini column with solvent A (50 mM TEAB pH 8.0) and solvent B (acetonitrile) using the following linear gradient: 0% B (t = 0-5 min), 0-5% B (t = 5-25 min), 5-90% B (t = 25-35 min). Absorbance at wavelength (l) = 254 nm was monitored.
Consumption was quantified by integration of dTDP-sugar donors relative to the total amount of thymidine-containing products, which was then subtracted from the starting dTDP-sugar concentration at the t = 0 time point. […] Characterization of each reaction was monitored by scanning in the negative ion mode and analyzed using Agilent MassHunter […]

[4] abbreviates: 25 °C, ligand titrated into 110 µM RfbF.
The mark [5] stands for this setting: 25 °C, ligand titrated into 110 µM RfbF, one-site model, spread = SD, triplicate.
Setting [6] is: ligand titrated into 110 µM RfbF.
Setting [7] is: KD, 25 °C, ligand titrated into 110 µM RfbF, one-site model, spread = SD, triplicate.

Sequence of T. thermophilus RfbF (Q72KB9 entry or part of it): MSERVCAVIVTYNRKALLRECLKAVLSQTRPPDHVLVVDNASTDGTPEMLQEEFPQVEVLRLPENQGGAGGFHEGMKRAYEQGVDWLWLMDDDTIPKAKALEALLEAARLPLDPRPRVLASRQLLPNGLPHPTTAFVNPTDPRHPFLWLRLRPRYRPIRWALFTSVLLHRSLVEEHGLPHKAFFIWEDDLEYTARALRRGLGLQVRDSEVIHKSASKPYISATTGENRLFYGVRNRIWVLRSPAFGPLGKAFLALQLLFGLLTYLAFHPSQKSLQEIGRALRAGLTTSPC
T1 sequence (P36667 whole entry, looked up): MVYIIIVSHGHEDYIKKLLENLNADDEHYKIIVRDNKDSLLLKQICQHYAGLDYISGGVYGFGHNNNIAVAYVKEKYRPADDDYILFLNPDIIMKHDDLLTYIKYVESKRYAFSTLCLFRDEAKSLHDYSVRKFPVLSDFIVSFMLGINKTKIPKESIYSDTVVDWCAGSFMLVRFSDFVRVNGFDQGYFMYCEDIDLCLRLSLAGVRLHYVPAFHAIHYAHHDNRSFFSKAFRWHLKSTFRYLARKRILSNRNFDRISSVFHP

For `CC1OC(OP(=O)(O)OP(=O)(O)OCC2OC(n3cnc4c(=O)[nH]c(N)nc43)C(O)C2O)C(O)C(O)C1O` [GDP-β-L-Rha, GDP-β-L-rhamnose], in assay [1] (setting [4]), the ΔG result is listed as “N/B”, the ΔH entry is recorded as “N/B” and the ΔS entry is recorded as “N/B”. In addition, in assay [1] (setting [5]), the KD entry is reported as “N/B”. In addition, in assay [1] (setting [6]), the “binding to RfbF by ITC (in words)” value is recorded as “no measurable; also recorded: no binding”.

Turning to `OC[C@@H]1OC(O)[C@H](O)[C@H](O)[C@H]1O` (stereo partly drawn) [L-Man, L-Mannose, reference compound], in assay [2], the “inhibition of E. coli WbbL” value is on record as “Lack of inhibition”.

As usually defined, the Kd is a measure of binding affinity in units of concentration. Take `CC1OC(OP(=O)(O)O)C(O)C(O)C1O` [L-Rha-1-phosphate, L-Rhamnose-1-phosphate, reference compound]: the Kd in assay [1] (5-10 mM ligand titrated into 110 µM RfbF, read-out: KD (beyond measurable limit)) is over 1000 µM.

As to `N[C@@H](CO)C(=O)O` [Ser], the “turnover as noncanonical acceptor with the native donor” value in assay [3] is “no turnover”.

Turning to `CC(=O)NC1C(OP(=O)(O)OP(=O)(O)OCC2OC(n3ccc(=O)[nH]c3=O)C(O)C2O)OC(CO)C(O)C1O` [UDP-α-D-GlcNAc, UDP-a-N-acetyl-D-glucosamine, reference compound], in assay [1] (setting [4]), the ΔG entry is reported as “N/B”, the ΔH entry was “N/B” and the ΔS result is “N/B”. Also, the KD entry in assay [1] (setting [5]) was “N/B”. Moreover, the “binding to RfbF by ITC (in words)” value in assay [1] (ligand titrated into 110 µM RfbF, listed as UDP-a-D-GlcNAc) was “no”. The “binding to RfbF by ITC (in words)” value in assay [1] (ligand titrated into 110 µM RfbF, listed as UDP-α-GlcNAc) is “did not bind at μM concentrations”. Moreover, the “turnover as noncanonical acceptor with the native donor” value in assay [3] (listed as UDP-α-GlcNAc) was “no turnover; also recorded: not used as an acceptor”.

As for `CC1OC(OP(=O)(O)OP(=O)(O)OCC2OC(n3ccc(=O)[nH]c3=O)C(O)C2O)C(O)C(O)C1O` [UDP-β-L-Rha, UDP-β-L-rhamnose], in assay [1], the “fold increase in KD relative to dTDP-β-L-Rha” value is about 4.5 fold and the “n-value (stoichiometry)” value is on record as 1.30 (0.28). For the same compound, in assay [1] (setting [4]), the ΔG is listed as 8.55 (3.65) kcal/mol, the ΔH is listed as -6.72 (1.01) kcal/mol and the ΔS is -51.2 (14.7) cal/mol·K. The affinity in assay [1] (setting [7]), expressed as Kd, was 36.1 ± 10.7 µM.

Turning to `Cc1cn([C@H]2C[C@H](O)[C@@H](COP(=O)(O)OP(=O)(O)O)O2)c(=O)[nH]c1=O` [dTDP, reference compound], the “binding to RfbF by ITC (in words)” value in assay [1] (setting [6]) is listed as “no binding profile is observed; also recorded: did not bind”.

On to `Cc1cn(C2CC(O)C(COP(=O)(O)OP(=O)(O)OC3OC(CO)C(O)C(O)C3O)O2)c(=O)[nH]c1=O` [dTDP-α-D-Glc, dTDP-a-D-glucose, reference compound], for which the “fold increase in KD relative to dTDP-β-L-Rha” value in assay [1] (listed as dTDP-α-Glc) is recorded as about 75 fold. Further, binding in assay [1] (setting [7]) was characterised by a dissociation constant (Kd) of 637 ± 96 µM.

For `Cc1cn(C2CC(O)C(COP(=O)(O)OP(=O)(O)OC3OC(C)C(O)C(O)C3O)O2)c(=O)[nH]c1=O` [dTDP-α-L-Rha, dTDP-a-L-rhamnose], in assay [1] (setting [4]), the ΔG result was “N/B”, the ΔH entry is “N/B” and the ΔS entry is on record as “N/B”. Moreover, the KD entry in assay [1] (setting [5]) is on record as “N/B”. For the same compound, the “binding to RfbF by ITC (in words)” value in assay [1] (setting [6]) is given as “no detectable binding”. Also, the “binding to RfbF by ITC (in words)” value in assay [1] (ligand titrated into 110 µM RfbF, listed as dTDP-a-L-Rha) was “no measurable”.

`Cc1cn(C2CC(O)C(COP(=O)(O)OP(=O)(O)OC3OC(C)C(O)C(O)C3O)O2)c(=O)[nH]c1=O` [dTDP-β-L-6dTal, dTDP-6-deoxy-β-L-talose]: in assay [1] (setting [4]), the ΔG is 0.415 (2.847) kcal/mol, the ΔH was -8.17 (2.70) kcal/mol and the ΔS is reported as -28.8 (3.7) cal/mol·K. Further, in assay [1] (setting [6]), the “binding to RfbF by ITC (in words)” value is reported as “comparable affinity as the native substrate”. The “n-value (stoichiometry)” value in assay [1] is recorded as 0.934 (0.028). For the same compound, the Kd in assay [1] (setting [7]) amounted to 16.5 µM.

With `Cc1cn(C2CC(O)C(COP(=O)(O)OP(=O)(O)OC3OC(C)C(O)C(O)C3O)O2)c(=O)[nH]c1=O` [dTDP-β-L-Fuc, dTDP-β-L-fucose], in assay [1], the “fold increase in KD relative to dTDP-β-L-Rha” value was about 15 fold. This compound yielded a Kd in assay [1] (setting [7]) of 126 ± 1 µM.

For the compound `Cc1cn(C2CC(O)C(COP(=O)(O)OP(=O)(O)OC3OC(CO)C(O)C(O)C3O)O2)c(=O)[nH]c1=O` [dTDP-β-L-Man, dTDP-β-L-mannose], the “fold increase in KD relative to dTDP-β-L-Rha” value in assay [1] is listed as 60 fold. In addition, the Kd in assay [1] (setting [7]) was 496 ± 56 µM.

Regarding L-rhamnose [reference compound], the “inhibition of E. coli WbbL” value in assay [2] is recorded as 38%.
